According to ChEMBL document CHEMBL1201862, “PubChem BioAssay data set” (2004):
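Where inhibition never reached the appropriate level, the endpoint shown equals the highest concentration tested. Otherwise, values were interpolated linearly from a five-concentration, 48-hour dose response in 96-well plates. At the GI50, growth is halved.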 The source made the active and inactive calls. Rule as the data show it: active = GI50 up to about 1.1 µM and inactive = higher. Starred links: 1 amine or outer side, 2 acyl side, 3 side chain; linkers in the order of their positions; H or OH if unused. Residues, ends and D or L forms follow the SMILES beside them. *: point of attachment. γGlu = O=C(O)[CH](CCC(=O)[*:2])N[*:1]; NHOH = ON*

What was measured:
Test in all cases: NCI tumour cell line growth inhibition, 48 h
[1] = system: ACHN
[2] = system: HCC 2998
[3] = system: IGROV-1
[4] = system: K562
[5] = system: KM-20L2
[6] = system: LOX IMVI
[7] = system: NCI-H460
[8] = system: NCI-H522
[9] = system: RXF 393
[10] = system: SF-268
[11] = system: SK-MEL-28
[12] = system: SK-OV-3
[13] = system: SNB-75
[14] = system: SW-620
[15] = system: UACC-62
[16] = system: OVCAR-5
[17] = system: CAKI-1
[18] = system: MDA-MB-231
[19] = system: NCI/ADR-RES
[20] = system: PC-3

SMILES	GI50 [1]	GI50 [2]	GI50 [3]	GI50 [4]	GI50 [5]	GI50 [6]	GI50 [7]	GI50 [8]	GI50 [9]	GI50 [10]	GI50 [11]	GI50 [12]	GI50 [13]	GI50 [14]	GI50 [15]	GI50 [16]	GI50 [17]	GI50 [18]	GI50 [19]	GI50 [20]
Cc1nc2nnc(C)n2c2c1C(=O)Nc1ccccc1N2	> 100 µM (inactive)	> 100 µM (inactive)	> 100 µM (inactive)	> 100 µM (inactive)	> 100 µM (inactive)	> 100 µM (inactive)	> 100 µM (inactive)	> 100 µM (inactive)	> 100 µM (inactive)	> 100 µM (inactive)	> 100 µM (inactive)	> 100 µM (inactive)	> 100 µM (inactive)	> 100 µM (inactive)	> 100 µM (inactive)					
Cc1cc2c(c(C(N)=O)c1C)-c1cc(Cl)cc(Cl)c1C2=O	> 100 µM (inactive)	> 100 µM (inactive)	> 100 µM (inactive)	> 100 µM (inactive)	> 100 µM (inactive)	93.3 µM (inactive)	> 100 µM (inactive)	> 100 µM (inactive)	> 100 µM (inactive)	97.7 µM (inactive)	> 100 µM (inactive)	57.4 µM (inactive)	22.6 µM (inactive)		> 100 µM (inactive)	> 100 µM (inactive)				
C/C(CC(=O)Nc1ccc(C)c(C)c1)=N\NC(N)=O	> 100 µM (inactive)	> 100 µM (inactive)	> 100 µM (inactive)	> 100 µM (inactive)	> 100 µM (inactive)	> 100 µM (inactive)	> 100 µM (inactive)	82 µM (inactive)	> 100 µM (inactive)	> 100 µM (inactive)	> 100 µM (inactive)	> 100 µM (inactive)	> 100 µM (inactive)	> 100 µM (inactive)	> 100 µM (inactive)	> 100 µM (inactive)				
CC1=NN(C(=O)c2ccncc2)C(=O)C1/N=N/c1ccc(F)cc1 (configuration not stated)	> 100 µM (inactive)		> 100 µM (inactive)	> 100 µM (inactive)	> 100 µM (inactive)	> 100 µM (inactive)	> 100 µM (inactive)	> 100 µM (inactive)	58.1 µM (inactive)	> 100 µM (inactive)	> 100 µM (inactive)	> 100 µM (inactive)	21.5 µM (inactive)	> 100 µM (inactive)	> 100 µM (inactive)	> 100 µM (inactive)	> 100 µM (inactive)			
Cc1ccc(/C=C/C(=O)c2sc(-c3cccnc3)nc2C)cc1	> 100 µM (inactive)	> 100 µM (inactive)	> 100 µM (inactive)	> 100 µM (inactive)	> 100 µM (inactive)	> 100 µM (inactive)	> 100 µM (inactive)	> 100 µM (inactive)	98.9 µM (inactive)			> 100 µM (inactive)		> 100 µM (inactive)	> 100 µM (inactive)	> 100 µM (inactive)	> 100 µM (inactive)			
COc1ccc(/C=N/NC(=O)NCCNCCO)cc1	> 100 µM (inactive)		> 100 µM (inactive)	> 100 µM (inactive)	> 100 µM (inactive)	> 100 µM (inactive)	> 100 µM (inactive)	> 100 µM (inactive)	> 100 µM (inactive)	> 100 µM (inactive)	> 100 µM (inactive)	> 100 µM (inactive)	> 100 µM (inactive)	> 100 µM (inactive)	> 100 µM (inactive)	> 100 µM (inactive)	> 100 µM (inactive)			
O=[N+]([O-])c1ccc(-c2nn3c(C45CC6CC(CC(C6)C4)C5)nnc3s2)c(Cl)c1	> 100 µM (inactive)	> 100 µM (inactive)	> 100 µM (inactive)	> 100 µM (inactive)		> 100 µM (inactive)	> 100 µM (inactive)	> 100 µM (inactive)	> 100 µM (inactive)	> 100 µM (inactive)	> 100 µM (inactive)	> 100 µM (inactive)	> 100 µM (inactive)	> 100 µM (inactive)	> 100 µM (inactive)	> 100 µM (inactive)	> 100 µM (inactive)	> 100 µM (inactive)	> 100 µM (inactive)	> 100 µM (inactive)
CCOC(=O)CNC(=O)C(CCC(=O)NO)NC(=O)CCC(N)C(=O)O (configuration not stated) (γGlu-Glu(NHOH)-Gly-OEt; configuration not given here)	> 100 µM (inactive)	> 100 µM (inactive)	> 100 µM (inactive)	> 100 µM (inactive)		> 100 µM (inactive)	> 100 µM (inactive)	> 100 µM (inactive)	> 100 µM (inactive)	> 100 µM (inactive)	> 100 µM (inactive)	> 100 µM (inactive)	> 100 µM (inactive)	> 100 µM (inactive)	> 100 µM (inactive)	> 100 µM (inactive)	> 100 µM (inactive)	> 100 µM (inactive)	> 100 µM (inactive)	> 100 µM (inactive)
O=C1N/C(=N/N=C/C(O)C(O)C(O)C(O)CO)N/C1=C\c1c[nH]c2ccccc12 (configuration not stated)	> 100 µM (inactive)	> 100 µM (inactive)	> 100 µM (inactive)	83.9 µM (inactive)		> 100 µM (inactive)	> 100 µM (inactive)	54.1 µM (inactive)	> 100 µM (inactive)	> 100 µM (inactive)	> 100 µM (inactive)	> 100 µM (inactive)	> 100 µM (inactive)	> 100 µM (inactive)	> 100 µM (inactive)	> 100 µM (inactive)	> 100 µM (inactive)	34.2 µM (inactive)	> 100 µM (inactive)	20.3 µM (inactive)
C=C1[C@H](OCC(C)C)[C@@H](O)[C@@H](OC(=O)c2cccnc2)C(C)(C)/C=C/[C@H](C)[C@H](OC(C)=O)[C@@]2(O)C[C@@](C)(OC(C)=O)[C@H](OC(=O)c3ccccc3)[C@@H]2[C@H]1OC(C)=O	0.161 µM (active)	0.19 µM (active)	1.36 µM (inactive)	0.0585 µM (active)		1.17 µM (inactive)	0.0126 µM (active)	0.944 µM (active)	4.24 µM (inactive)	> 1.49 µM (inactive)	1.14 µM (inactive)	> 3.02 µM (inactive)	0.134 µM (active)	0.502 µM (active)	2.07 µM (inactive)	> 2.43 µM (inactive)	0.488 µM (active)	> 2.54 µM (inactive)	1.29 µM (inactive)	1.66 µM (inactive)
C[C@@H]1CCC2[C@@H](C)[C@@H](OCCO[C@H]3OC4O[C@@]5(C)CCC6[C@H](C)CCC([C@H]3C)[C@@]46OO5)OC3O[C@@]4(C)CCC1[C@]32OO4 (some centres not stated)	0.154 µM (active)	6.92 µM (inactive)	0.0652 µM (active)	0.0212 µM (active)		0.0565 µM (active)	0.151 µM (active)	0.0689 µM (active)	0.94 µM (active)	0.233 µM (active)	2.86 µM (inactive)	0.577 µM (active)	0.546 µM (active)	0.0537 µM (active)	0.279 µM (active)	0.0826 µM (active)	0.0652 µM (active)	2.21 µM (inactive)	0.241 µM (active)	0.0174 µM (active)
